Values of other authors, collected in US20060153823A1, “Compositions and methods for nutritional supplementation” (Everett Laboratories, Inc., priority 2005, published 2006).

Key:
[1] = tested on: patients with hypertension
[2] = tested on: patients with congestive heart failure
[3] = tested on: patients with ischemic heart disease
[4] = tested on: patients with cardiomyopathy
[5] = tested on: nitric oxide (NO)

| SMILES | blood pressure [1] | blood pressure [2] | myocardial metabolic function [2] | myocardial thickness [2] | magnitude and rate of clinical improvement [3] | cardiac function including ejection fraction and cardiac output [4] | levels and functioning of nitric oxide (NO) [5] |
| --- | --- | --- | --- | --- | --- | --- | --- |
| COC1=C(OC)C(=O)C(C/C=C(\C)CC/C=C(\C)CC/C=C(\C)CC/C=C(\C)CC/C=C(\C)CC/C=C(\C)CC/C=C(\C)CC/C=C(\C)CC/C=C(\C)CCC=C(C)C)=C(C)C1=O [CoQ10, coenzyme Q10] | significantly reduce blood pressure | reduce blood pressure | improve myocardial metabolic function | reduce myocardial thickness | enhances both the magnitude and rate of clinical improvement | significant improvement in cardiac function |  |
| Nc1nc2ncc(CNc3ccc(C(=O)N[C@@H](CCC(=O)O)C(=O)O)cc3)nc2c(=O)[nH]1 [folic acid] |  |  |  |  |  |  | improves the levels and functioning |
